Experimental findings from US20050096297A1, “Antibacterial agents” (priority 2003, published 2005) are described below.

Converted amounts (≈) assume the structure as drawn.

What all share (experiment): Test A antibacterial assay, MIC by microtitration
Type in all cases: cell-based

For assay [1], the system named is M. catarrhalis BC-3531. The following applies: Moraxella catarrhalis, BC3531; Gram Negative Bacteria; strain BC-3531; read-out: Minimum Inhibitory Concentrations M. catarrhalis BC-3531. On the procedure: (§1) Test A—Antibacterial Assays
(§2) The compounds of the present invention were tested against an assortment of Gram-negative and Gram-positive organisms using standard microtitration techniques (Cohen et. al., Antimicrob., 1985;28:766; Heifetz, et. al., Antimicrob., 1974;6:124).

Assay [2] relates to E. coli EC-2549. The following applies: Escherichia coli, EC2549; Gram Negative Bacteria; strain EC-2549; read-out: Minimum Inhibitory Concentrations E. coli EC-2549. On the procedure: as §1, §2
In assay [3] the test system is H. influenzae HI-3542. The following applies: Haemophilus influenzae, HI3542; Gram Negative Bacteria; strain HI-3542; read-out: Minimum Inhibitory Concentrations H. influenzae HI-3542. On the procedure: as §1, §2
Assay [4] deals with S pyogenes C203. The following applies: Gram Positive Bacteria; strain C203; read-out: Minimum Inhibitory Concentrations S pyogenes C203. On the procedure:
as §1, §2

The test system of assay [5] is S. aureus UC-76. To be noted: Staphylococcus aureus, UC76; Gram Positive Bacteria; strain UC-76; read-out: Minimum Inhibitory Concentrations S. aureus UC-76. The procedure:
as §1, §2

Assay [6] concerns E. faecalis MGH-2. To be noted: Enterococcus faecalis, MGH2; Gram Positive Bacteria; strain MGH-2; read-out: Minimum Inhibitory Concentrations E. faecalis MGH-2. On the procedure: as §1, §2

In the case of `O=C(O)c1cn(C2CC2)c2c(Cl)c(N3CC(O)(C4CC4)C3)c(F)cc2c1=O` [drawing 132], the MIC in assay [1] is 0.03 mg/L (≈ 0.0764 µM); in assay [2] it was 0.002 mg/L (≈ 0.00509 µM); in assay [3], 0.03 mg/L (≈ 0.0764 µM).
On to `O=C(O)c1cn(C2CC2)c2c(Cl)c(N3CC(O)(C4CC4)C3)c(F)cc2c1=O` [drawing 135], for which the MIC in assay [4] was 0.5 mg/L (≈ 1.27 µM); in assay [5], 0.03 mg/L (≈ 0.0764 µM); in assay [6] it was 0.5 mg/L (≈ 1.27 µM).
Consider `Cc1c(N2CC(CCO)C2)c(F)cc2c(=O)c(C(=O)O)cn(C3CC3)c12` [drawing 130], for which the MIC in assay [1] came to 0.015 mg/L (≈ 0.0416 µM); in assay [2] it was 0.002 mg/L (≈ 0.00555 µM); in assay [3] it was 0.008 mg/L (≈ 0.0222 µM).
Take `Cc1c(N2CC(O)(C(F)(F)F)C2)c(F)cc2c(=O)c(C(=O)O)cn(C3CC3)c12`: the MIC in assay [1] is 0.06 mg/L (≈ 0.15 µM); in assay [2], 0.0004 mg/L (≈ 0.000999 µM); in assay [3], 0.03 mg/L (≈ 0.0749 µM).
As for `Cc1c(N2CC(CCO)C2)c(F)cc2c(=O)c(C(=O)O)cn(C3CC3)c12` [drawing 133], the MIC in assay [4] came to 0.25 mg/L (≈ 0.694 µM); in assay [5], 0.03 mg/L (≈ 0.0832 µM); in assay [6] it was 0.25 mg/L (≈ 0.694 µM).
